Assays:
TNF-α [1] = test: TNF-α secretion in epithelial cells (ELISA); format: cell-based, human
[2] = tested on: HCLE cells infected with HSV-1; test: Microarray gene expression in HCLE cells infected with HSV-1; format: cell-based, human; settings: HCLE infected with HSV-1 (m.o.i.=1), 40 μM, 6 h, vs infected untreated
Description: HSV-1 infected cells and LPS stimulated cells were transcriptionally analyzed by using the whole human genome microarray and whole mouse genome microarray (Agilent Technologies, Santa Clara, Calif.), corresponding to 41,000 human or mice genes and transcripts.
RNA was extracted with chloroform/isopropanol and purified from Trizol.
cDNA synthesis, amplification and labeling of cRNA was performed, following the protocol of two colors of Agilent. Cyanine: 3-CTP and 5-CTP labeled cRNA was prepared from purified RNA (Two-Color Microarray-Based Gene Expression Analysis—Quick Amp Labeling, Agilent). Labeled cRNA was purified, quantified and the efficiency of labeling determined.
After that, we proceeded with the hybridization, washing, assembling of the chips and scanning. […] The fluorescence intensity data obtained for each chip were analyzed using GeneSpring XG11 and Multi Experiment Viewer (MeV) programs. […]
We used the commercial software Agilent Feature Extraction for quality control of the scan. The software converts the scanned images produced in quantitative data for further analysis. […] On the one hand, it performs an analysis of the image to locate the grid on the chip and in it, the spots for each gene, and on the other hand, it makes an analysis of data, to define and measure information (fluorescence intensity) of each spot, for the analysis of gene expression. […]

TNF-α [3] = test: TNF-α secretion in LPS-activated macrophages; format: cell-based; settings: Macrophage, read-out: inhibitory concentration 50% (IC50), TNF-α secretion
human conjunctival cells = test: Cytotoxicity assay, conjunctival cells; format: cell-based
Description: Cell viability was determined as previously reported. The absorbance of each well was measured on a Eurogenetics MPR-A 4i microplate reader using a test wavelength of 570 nm and a reference wavelength of 630 nm. Results were expressed as a percentage of absorbance of treated cells with respect to untreated ones. The CC50 was defined as the concentration of compound that caused 50% reduction in cell viability.

NF-κB p65 subunit = test: NF-κB p65 nuclear translocation in HSV-1 infected IOBA-NHC and HCLE cells (IFI); format: cell-based, human; settings: 40 μM
Description: IOBA-NHC and HCLE cells monolayers grown on coverslips in 24-well plates were infected with 0.2 ml of HSV-1 KOS (m.o.i.=1) and incubated 1 h at 37° C. Then, the inoculums were removed and cells were coated with a DMEM/F12 without SFB, for 24 h at 37° C.
After incubation, cells were fixed in methanol at −20° C. for 10 min, and processed for indirect immunofluorescence (IFI) with antibodies directed against the glycoprotein D (gD) of HSV-1 and/or the p65 subunit of NF-κB. […]
The images obtained with a 40× magnification were imported into NIH Image J 1.34s program (designed by Wayne Rasband, NIMH, Bethesda). […] We analyzed the total and nuclear fluorescence of the individual cells and a mean fluorescence density was obtained for each. To compare the distribution of fluorescence within the cell, the results were analyzed in a spreadsheet (Excel®). The total fluorescence intensity or nuclear density was calculated as the total or nuclear average per total or nuclear area, respectively. Then, we calculated the percentage of nuclear intensity or the percentage of nuclear intensity with respect to the total intensity for each cell. Non-stimulated cells were processed to establish a baseline of nuclear fluorescence (cut-off value). […]

LMM3 cells = test: In vivo neovascular response induced by LMM3 cells in BALB/c mice; settings: intradermal, 5 days
Description: For the in vivo assay, 2×10^6 cells/mL were grown in 1 mL of complete medium in 6 wells plates. Compound 1 was incubated with LMM3 cells during 1 h and 6 hs. Also, a group of non-treated tumoral cells were grown and incubated. Then, all the cells from each group were washed with PBS, trypsinized and re-suspended in 0.9 ml of F12 medium without FBS.
Female BALB/c mice were randomized as follows:
• Sham N=4 • LMM3 N=4 • LMM3+Compound 1-1 hour treatment N=4 • LMM3+Compound 1-6 hours treatment N=4
Then, inoculation of 2×10^5 cells/0.1 mL was done intradermically in the mouse flanks. After 5 days the animals were sacrificed and photographs of the inoculation site were taken.
The vessels density was quantified in each animal and the results were analized by ANOVA followed by the Tukey test. Results were expressed as the median of vessels density (vessels/mm^2+/−ES).

Question: How did the TNF-α production (TNF-α [1]; HSV-1 infected IOBA-NHC cells, 40 μM, 24 h) turn out when CC[C@@H](C(C)C)[C@H](O)[C@@H](O)[C@@H](C)[C@H]1CC[C@H]2[C@@H]3CCC4=CC(=O)CC[C@]4(C)[C@H]3CC[C@]12C [Compound 1, (22S,23S)-22,23-dihydroxystigmast-4-en-3-one] was run?
Answer: Its TNF-α production is “did not affect TNF-α production”.

Question: What about the TNF-α release (TNF-α [1]; uninfected treated cells, compound alone) of the same compound?
Answer: Its TNF-α release is “did not induce TNF-α release by itself”.

Question: What about the “expression of IL-1α, IL-8 and CXCL-2” value [2] of the same compound?
Answer: Its value is “overexpression”.

Question: And the “expression of macrophage colony stimulating factor (CSF-2)” value [2]?
Answer: The value was “overexpression”.

Question: What about the IC50 (TNF-α [3]) of the same compound?
Answer: Its IC50 is 7 µM.

Question: And the cytotoxicity (human conjunctival cells)?
Answer: Its cytotoxicity is “no cytotoxicity”.

Question: And the “percentage of cells exhibiting NF-κB translocation to the nucleus” value (NF-κB p65 subunit; HCLE cells infected with HSV-1 (m.o.i.=1))?
Answer: The value was 5.7%.

Question: And the “percentage of cells exhibiting NF-κB translocation to the nucleus” value (NF-κB p65 subunit; IOBA-NHC cells infected with HSV-1 (m.o.i.=1))?
Answer: The value was 22.2±1.2%.

Question: And the “angiogenic response induced by LMM3 cells (vessel density)” value (LMM3 cells; LMM3 cells pre-incubated with 0.025 μg/μl during 1 h)?
Answer: The value was “significantly reduced”.

Question: What about the “angiogenic response induced by LMM3 cells (vessel density)” value (LMM3 cells; LMM3 cells pre-incubated with 0.025 μg/μl during 6 h) of the same compound?
Answer: The value was “significantly reduced”.

Reference: patent US9187518B2, “Antiangiogenic brassinosteroid compounds” (CONSEJO NACIONAL DE INVESTIGACIONES CIENTIFICAS Y TECNICAS …, priority 2011, dated 2015)
